Assay results as given in publication PMC10014103, “The immunometabolite itaconate stimulates OXGR1 to promote mucociliary clearance during the pulmonary innate immune response” (The Journal of Clinical Investigation, 2023).
Where “and” joins values, the source holds several entries; their conditions need not be identical. Identical values can stand only once.

Target: T1, mouse OXGR1 (Mus musculus, UniProt Q6IYF8)
T1 construct: expressed in transfected cells; host or cells: HEK293
Assay: Aequorin assay (calcium mobilization) in HEK293 cells overexpressing mouse OXGR1
Type: cell-based
Settings: aequorin assay, mOXGR1 in HEK293 cells; read-out: EC50
Protocol: Thirty-six hours after transfection, cells were maintained in serum-free medium for 12 hours and then loaded with 5 μM coelenterazine for 3 hours. Cells were trypsinized and resuspended at a density of 5 × 10^5 cells/mL in HBSS supplemented with 10 mM HEPES and 0.5% BSA. Cell suspensions of 100 μL were aliquoted into 96-well plates.

T1 sequence (Q6IYF8 whole entry): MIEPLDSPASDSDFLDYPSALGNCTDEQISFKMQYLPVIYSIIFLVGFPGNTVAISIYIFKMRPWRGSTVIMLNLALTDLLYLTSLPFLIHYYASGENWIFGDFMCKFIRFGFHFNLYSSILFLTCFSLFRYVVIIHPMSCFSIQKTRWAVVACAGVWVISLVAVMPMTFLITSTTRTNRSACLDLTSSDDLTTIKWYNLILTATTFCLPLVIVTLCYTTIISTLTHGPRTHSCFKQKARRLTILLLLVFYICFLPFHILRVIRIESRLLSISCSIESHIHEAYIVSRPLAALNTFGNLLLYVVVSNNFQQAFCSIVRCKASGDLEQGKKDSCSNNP

## C=C(CC(=O)O)C(=O)O [ITA, itaconate]
  EC50: 416 µM and ~400 µM
